Tests used:
human D2sR (D2shortR) = target: T1, human D2sR (D2shortR) (Homo sapiens, UniProt P14416); test: [3H]spiperone displacement, CHO-K1 membranes; type: binding; details: read-out: D2sR pKi ± SEM ^b (converted)
T1 construct: gene DRD2; full-length short isoform stably expressed in CHO-K1 cells, membrane fraction
Source text: [3H]spiperone displacement, CHO-K1 membranes on human D2sR (D2shortR)

human D3R = target: T2, human D3R (Homo sapiens, UniProt P35462); test: [3H]spiperone displacement, CHO-K1 membranes; type: binding; details: read-out: D3R pKi ± SEM ^b (converted)
T2 construct: gene DRD3; full-length, stably expressed in CHO-K1 cells, membrane fraction
T2 sequence (P35462 whole entry): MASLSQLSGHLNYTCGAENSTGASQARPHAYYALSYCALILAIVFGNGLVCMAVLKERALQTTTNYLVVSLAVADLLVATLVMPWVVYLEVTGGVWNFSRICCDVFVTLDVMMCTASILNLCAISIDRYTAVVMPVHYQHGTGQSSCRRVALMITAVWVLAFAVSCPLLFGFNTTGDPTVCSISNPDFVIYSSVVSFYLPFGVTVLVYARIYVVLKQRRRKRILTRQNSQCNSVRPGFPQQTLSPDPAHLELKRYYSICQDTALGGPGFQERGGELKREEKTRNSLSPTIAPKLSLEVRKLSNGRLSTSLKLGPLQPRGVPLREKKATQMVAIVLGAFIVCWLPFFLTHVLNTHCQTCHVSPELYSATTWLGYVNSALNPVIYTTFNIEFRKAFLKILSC
Source text: [3H]spiperone displacement, CHO-K1 membranes on human D3R

T1 sequence (P14416 1-414 isoform P14416-2): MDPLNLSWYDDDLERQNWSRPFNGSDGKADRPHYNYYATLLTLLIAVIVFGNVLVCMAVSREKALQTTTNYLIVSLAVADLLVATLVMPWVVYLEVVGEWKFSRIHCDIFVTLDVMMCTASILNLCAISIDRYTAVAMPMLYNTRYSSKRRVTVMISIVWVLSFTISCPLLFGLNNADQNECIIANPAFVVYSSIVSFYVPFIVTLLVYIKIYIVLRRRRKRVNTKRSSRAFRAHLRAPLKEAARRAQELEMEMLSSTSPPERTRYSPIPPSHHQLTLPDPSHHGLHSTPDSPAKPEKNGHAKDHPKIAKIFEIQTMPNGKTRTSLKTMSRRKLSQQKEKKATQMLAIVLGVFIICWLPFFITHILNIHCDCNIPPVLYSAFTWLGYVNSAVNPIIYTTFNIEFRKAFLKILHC

Ki (human D2sR (D2shortR)): 0.759 µM | Ki (human D3R): 14.5 µM
Structure (SMILES): N=C(N)N(CCCCN1CCN(CCCCN(Cc2ccc(C(F)(F)F)cc2)C(=N)N)CC1)Cc1ccc(C(F)(F)F)cc1 [compound 30]
